Holding throughout (format): cell-based
The target in experiment [1] is T1, R232 hSTING variant (Homo sapiens, UniProt Q86WV6, H232R).
T1 construct: expressed in transfected cells; host or cells: THP1-Dual KI-hSTING-R232 cells, generated from THP1-Dual KO-STING cells
As to the kind of experiment: IRF3 reporter induction in THP1-Dual KI-hSTING-R232 Cells. As to conditions: THP1-Dual KI-hSTING-R232 Cells (R232 Haplotype). On the procedure: (§1) THP1-Dual™ Human Monocytes cells with the homozygous HAQ allele, known to be a natural variant allele of STING occurring in 20% of the human population (Invivogen) have been engineered with two independent gene reporter systems: a secreted embryonic alkaline phosphatase (SEAP) reporter gene for NFkB activity, and secreted luciferase reporter for […] (IRF3) activity were used. 4×10^5 THP1-Dual™ cells were incubated with test Compounds in a 5-fold titration steps from 1 to 0.0128 μM in RPMI media with 10% FBS, for 24 hours at 37° C. with 5% CO2. Cell culture supernatants (20 μl) from each incubated sample was added to resuspended QUANTI-Blue™ Solution (Invivogen, 180 μl) in each well of a flat-bottom 96-well plate, then incubated for 2 h. NFkB levels were evaluated using a spectrophotometer at 620-655 nm.
(§2) To evaluate IRF3 reporter levels, cell culture supernatant (20 μl) from each incubated sample was added to QUANTI-Luc™ assay solution (Invivogen, 50 μl), and the luminescence was measured with a SpectraMax M3 spectrophotometer (Molecular Devices).
(§3) NFkB and IRF3 reporter levels were also determined for THP1-Dual™ KI-hSTING-H232 Cells and THP1-Dual™ KI-hSTING-R232 Cells. THP1-Dual™ KI-hSTING-H232 Cells (R232H Haplotype) were generated from THP1-Dual™ KO-STING cells by knockin of the intronless coding sequence (from the ATG to TGA) of the R232H human STING variant (Invivogen). R232H has been identified as a natural variant allele of STING occurring in ˜14% of the human population. THP1-Dual™ KI-hSTING-R232 Cells (R232 Haplotype) were generated from THP1-Dual™ KO-STING cells by knockin of the intronless coding sequence (from the ATG to the TGA) of the R232 hSTING variant. Genomic studies indicate that this variant, which contains an arginine at position 232 (R232), is the most prevalent variant with an occurrence (homozygous allele) of ˜45-58% in the human population.
(§4) The EC50 value was determined from the dose response curve based on reference Compounds. Table 2a provides the results for IRF3 reporter induction THP1-Dual™ Human Monocytes cells and Table 2b provides the results for IRF3 reporter induction in THP1-Dual™ KI-hSTING-H232 Cells and THP1-Dual™ KI-hSTING-R232 Cells (“A” means <30 nM; “B” means ≥30 nM and <100 nM; “C” means ≥100 nM).

The target in experiment [2] is T2, R232H human STING variant (Homo sapiens, UniProt Q86WV6).
T2 construct: host or cells: THP1-Dual KI-hSTING-H232 cells, generated from THP1-Dual KO-STING cells
T2 sequence (Q86WV6 whole entry, stated change not applied): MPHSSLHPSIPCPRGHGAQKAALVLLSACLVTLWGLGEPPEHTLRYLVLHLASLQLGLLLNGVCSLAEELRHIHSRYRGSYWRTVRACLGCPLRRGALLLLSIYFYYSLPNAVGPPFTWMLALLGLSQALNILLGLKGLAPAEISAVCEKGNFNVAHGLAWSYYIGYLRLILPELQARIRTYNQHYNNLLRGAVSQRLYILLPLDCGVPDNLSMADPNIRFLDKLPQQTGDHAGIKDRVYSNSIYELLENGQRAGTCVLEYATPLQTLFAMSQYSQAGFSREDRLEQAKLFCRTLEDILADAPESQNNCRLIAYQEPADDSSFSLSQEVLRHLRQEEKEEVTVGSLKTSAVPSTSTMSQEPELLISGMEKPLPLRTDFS
As to the kind of experiment: IRF3 reporter induction in THP1-Dual KI-hSTING-H232 Cells. Conditions: THP1-Dual KI-hSTING-H232 Cells (R232H Haplotype). On the procedure:
as §1, §2, §3, §4

In experiment [3] the target is T3, Human STING (Homo sapiens, UniProt Q86WV6, G230A/H232R/R293Q/R71H).
T3 construct: host or cells: THP1-Dual cells, digitonin-permeabilized
T3 sequence (Q86WV6 whole entry R71H/G230A/H232R/R293Q): as the sequence (Q86WV6 whole entry, stated change not applied) above, with R71H, G230A, H232R, R293Q counted along it
As to the kind of experiment: Activation of human STING signaling in permeabilized THP1 cells, IRF3 induction. Conditions: THP1-Dual cells permeabilized with digitonin buffer 30 minutes on ice, then 24 h in RPMI media. The protocol:
as §2
4×10^5 THP1-Dual™ cells (NF-κB-SEAP and IRF-Lucia luciferase Reporter Monocytes, Invivogen) were incubated with test Compounds in a 5-fold titration steps from […] in permeabilized buffer (50 mM HEPES pH 7.0, 100 mM KCl, 3 mM MgCl2, 85 mM sucrose, 0.2% BSA, 1 mM ATP, 0.1 mM GTP, 0.1 mM TTP, 1 μg/ml digitonin) for 30 minutes on ice. Cells were then washed and incubated in a fresh RPMI media with 10% FBS at 37° C. with 5% CO2 for 24 h. Cell culture supernatants from each sample were collected and NFkB and IRF3 were evaluated as above. Table 3 provides the results for IRF3 induction (“A” means <1 μM; “B” means ≥1 μM and <50 μM; “C” means ≥50 μM).

The target of experiment [4] is T4, Human STING (HAQ allele) (Homo sapiens, UniProt Q86WV6, G230A/H232R/R293Q/R71H).
T4 construct: THP1-Dual™ Human Monocytes cells with the homozygous HAQ allele; host or cells: THP1-Dual human monocytes
T4 sequence (Q86WV6 whole entry R71H/G230A/H232R/R293Q): as the sequence (Q86WV6 whole entry, stated change not applied) above, with R71H, G230A, H232R, R293Q counted along it
Put plainly: IRF3 reporter induction in THP1-Dual Human Monocytes cells (homozygous HAQ STING allele). Conditions: IRF3 reporter (secreted luciferase), 24 hours incubation. On the procedure:
as §1, §2, §4

T1 sequence (Q86WV6 whole entry H232R): as the sequence (Q86WV6 whole entry, stated change not applied) above, with H232R counted along it

On to `CCc1nc(C)oc1C(=O)/N=c1\sc2cc(C(N)=O)cc(OC)c2n1C/C=C/Cn1c(NC(=O)c2oc(C)nc2CC)nc2cc(C(N)=O)cc(OCCCC(=O)O)c21` [compound 66], for which the EC50 in experiment [1] is under 30 nM; in experiment [2], at least 100 nM; in experiment [3], under 1000 nM; in experiment [4], at least 100 nM.
In the case of `CCn1nc(C)cc1C(=O)/N=c1\sc2cc(C(N)=O)cc(OC)c2n1C/C=C/Cn1c(NC(=O)c2cc(C)nn2CC)nc2cc(C(N)=O)cc(OCCCO)c21` [compound 65], the EC50 was under 1000 nM in experiment [3] and under 30 nM in experiment [4].
As for `CCc1nc(C)oc1C(=O)Nc1nc2cc(C(N)=O)cc(OC)c2n1C/C=C/Cn1c(NC(=O)c2oc(C)nc2CC)nc2cc(C(N)=O)cc(OCCCO)c21` [compound 9], the EC50 in experiment [1] was under 30 nM; in experiment [2], under 30 nM; in experiment [3] it was under 1000 nM; in experiment [4], 30 to 100 nM.
Regarding `CCc1nc(C)oc1C(=O)/N=c1\sc2cc(C(N)=O)cc(OC)c2n1C/C=C/Cn1c(NC(=O)c2oc(C)nc2CC)nc2cc(C(N)=O)cc(OCCCO)c21` [compound 63], the EC50 in experiment [1] was under 30 nM; in experiment [2], under 30 nM; in experiment [3], under 1000 nM; in experiment [4], at least 100 nM.
For `CCc1nc(C)oc1C(=O)Nc1nc2cc(C(N)=O)cc(OC)c2n1C/C=C/Cn1c(NC(=O)c2cc(C)nn2CC)nc2cc(C(N)=O)cc(OCCCO)c21` [compound 43], the figures for the EC50 in experiment [3] and in experiment [4] were under 1000 nM and under 30 nM, respectively.
As to `CCc1nc(C)oc1C(=O)Nc1nc2cc(C(N)=O)cnc2n1C/C=C/Cn1c(NC(=O)c2oc(C)nc2CC)nc2cc(C(N)=O)cc(OCCCO)c21` [compound 95], the EC50 in experiment [1] was under 30 nM; in experiment [2], under 30 nM; in experiment [3] it was under 1000 nM; in experiment [4], 30 to 100 nM.
`CCc1nc(C)oc1C(=O)Nc1nc2cc(C(N)=O)cc(OCCCO)c2n1C/C=C/Cn1/c(=N/C(=O)c2cc(C)nn2CC)sc2cc(C(N)=O)cc(OC)c21` [compound 69]: the EC50 is under 30 nM in experiment [1], under 30 nM in experiment [2] and at least 100 nM in experiment [4].
As to `CCc1nc(C)oc1C(=O)/N=c1\sc2nc(C(N)=O)cnc2n1C/C=C/Cn1c(NC(=O)c2oc(C)nc2CC)nc2cc(C(N)=O)cc(OCCCO)c21` [compound 167], the EC50 in experiment [1] is 30 to 100 nM; in experiment [2], 30 to 100 nM; in experiment [4], at least 100 nM.
As to `CCc1nc(C)oc1C(=O)Nc1nc2cc(C(N)=O)cc(OC)c2n1C/C=C/Cn1c(NC(=O)c2oc(C)nc2CC)nc2cc(C(N)=O)cc(OCCCN)c21` [compound 18], the values for the EC50 in experiment [3] and in experiment [4] were under 1000 nM and 30 to 100 nM, respectively.
The compound `CCn1nc(C)cc1C(=O)/N=c1\sc2cc(C(N)=O)cnc2n1C/C=C/Cn1c(NC(=O)c2cc(C)nn2CC)nc2cc(C(N)=O)cc(OCCCC(=O)O)c21` [Compound 140] gave an EC50 in experiment [3] of under 1000 nM.
Still for that read-out and setting: the same measure for `CCc1nc(C)oc1C(=O)Nc1nc2cc(CNC(C)=O)cc(OC)c2n1C/C=C/Cn1c(NC(=O)c2oc(C)nc2CC)nc2cc(C(N)=O)cc(OCCCO)c21` [Compound 130]: 1000 to 50000 nM; for `CCc1nc(C)oc1C(=O)Nc1nc2cc(CN(C)C)cc(OC)c2n1C/C=C/Cn1c(NC(=O)c2oc(C)nc2CC)nc2cc(C(N)=O)cc(OCCCO)c21` [Compound 133]: 1000 to 50000 nM.
`CCn1nc(C)cc1C(=O)Nc1nc2cc(C(=O)OC)cnc2n1C/C=C/Cn1c(NC(=O)c2cc(C)nn2CC)nc2cc(C(N)=O)cc(OCCCO)c21` [Compound 123] came in with an EC50 in experiment [3] of under 1000 nM.
In turn, `CCc1nc(C)oc1C(=O)Nc1nc2cc(C(N)=O)cnc2n1C/C=C/Cn1c(NC(=O)c2sc(C)nc2CC)nc2cc(C(N)=O)cc(OCCCC(=O)O)c21` [Compound 151] came in with an EC50 in experiment [3] of under 1000 nM.
`CCc1nc(C)oc1C(=O)Nc1nc2cc(C(N)=O)cc(OCCCO)c2n1C/C=C/Cn1c(NC(=O)c2sc(C)nc2CC)nc2cc(C(N)=O)cc(OC)c21` [compound 37] returned an EC50 in experiment [3] of under 1000 nM.
With `CCc1nc(C)oc1C(=O)Nc1nc2cc(C(N)=O)cnc2n1C/C=C/Cn1c(NC(=O)c2oc(C)nc2CC)nc2cc(C(N)=O)cc(OCCCC(=O)O)c21` [compound 97], the EC50 was under 1000 nM in experiment [3] and at least 100 nM in experiment [4].
In the case of `CCn1nc(C)cc1C(=O)/N=c1\sc2cc(C(N)=O)cc(OC)c2n1C/C=C/Cn1c(NC(=O)c2cc(C)nn2CC)nc2cc(C(N)=O)cc(OCCCN)c21` [compound 67], the EC50 in experiment [3] is under 1000 nM.
Same read-out and setting: in the case of `CCc1nc(C)oc1C(=O)/N=c1\sc2cc(C(N)=O)cnc2n1C/C=C/Cn1c(NC(=O)c2sc(C)nc2CC)nc2cc(C(N)=O)cc(OCCCO)c21` [Compound 142] it was under 1000 nM.
The same measure, in the same setting: the same measure for `CCn1nc(C)cc1C(=O)Nc1nc2cc(CN)cnc2n1C/C=C/Cn1c(NC(=O)c2cc(C)nn2CC)nc2cc(C(N)=O)cc(OCCCO)c21` [Compound 122]: under 1000 nM.
In experiment [3], `CCc1nc(C)sc1C(=O)Nc1nc2cc(C(N)=O)cc(OC)c2n1C/C=C/Cn1c(NC(=O)c2sc(C)nc2CC)nc2cc(C(N)=O)cc(OCCCC(=O)O)c21` [Compound 141] displayed a concentration for a half-maximal effect (EC50) of 1000 to 50000 nM.
Same read-out and setting: in the case of `CCc1nc(C)oc1C(=O)Nc1nc2cc(CN)cc(OC)c2n1C/C=C/Cn1c(NC(=O)c2oc(C)nc2CC)nc2cc(C(N)=O)cc(OCCCO)c21` [Compound 128] it was under 1000 nM; in that of `CCn1nc(C)cc1C(=O)/N=c1\sc2cc(C(N)=O)cc(OC)c2n1C/C=C/Cn1c(NC(=O)c2ncnn2C(C)C)nc2cc(C(N)=O)cc(OCCCO)c21` [compound 71], 1000 to 50000 nM; in that of `CCn1nc(C)cc1C(=O)/N=c1\sc2cc(C(N)=O)cc(OC)c2n1C/C=C/Cn1c(NC(=O)C2=C(C)OCC2)nc2cc(C(N)=O)cc(OCCCO)c21` [compound 75], at least 50000 nM.
In the case of `CCn1nc(C)cc1C(=O)/N=c1\sc2cc(C(N)=O)cc(OCCCO)c2n1C/C=C/Cn1c(NC(=O)c2cc(C)nn2CC)nc2cc(C(N)=O)cnc21` [Compound 147], the EC50 in experiment [3] fell in the range of 1000 to 50000 nM.
In the case of `CCc1nn(C)cc1C(=O)Nc1nc2cc(C(N)=O)cc(OCCCO)c2n1C/C=C/Cn1c(NC(=O)c2cc(C)nn2CC)nc2cc(C(N)=O)ccc21` [compound 53], the results for the EC50 in experiment [3] and in experiment [4] were under 1000 nM and at least 100 nM, respectively.
In the case of `CCn1nc(C)cc1C(=O)Nc1nc2cc(C(N)=O)cnc2n1C/C=C/Cn1c(NC(=O)c2oc(C)nc2C)nc2cc(C(N)=O)cc(OCCCO)c21` [Compound 113], the EC50 in experiment [3] is 1000 to 50000 nM.
Take `CCn1nc(C)cc1C(=O)Nc1nc2cc(C(N)=O)cnc2n1C/C=C/Cn1c(NC(=O)c2cc(C)nn2CC)nc2cc(C(N)=O)cc(OCCCC(=O)O)c21` [Compound 112]: in experiment [3], the EC50 is under 1000 nM.
Same read-out and setting: in the case of `Cc1cc(C(=O)Nc2nc3cc(C(N)=O)ccc3n2C/C=C/Cn2c(NC(=O)c3cc(C)on3)nc3cc(C(N)=O)cc(OCCCO)c32)no1` [compound 26] it was under 1000 nM; in that of `CCn1nc(C)cc1C(=O)Nc1nc2cc(CN)cnc2n1C/C=C/Cn1c(NC(=O)c2cc(C)nn2CC)nc2cc(C(N)=O)cc(OC)c21` [Compound 129], 1000 to 50000 nM; in that of `CCc1nc(C)oc1C(=O)Nc1nc2cc(C(N)=O)cc(OCCCO)c2n1C/C=C/Cn1/c(=N/C(=O)c2sc(C)nc2CC)sc2cc(C(N)=O)cc(OC)c21` [compound 76], under 1000 nM.

These data come from patent US11155567B2, “Sting agonist compounds and methods of use” (Mersana Therapeutics, Inc., priority 2019, dated 2021).
